Measured values from patent publication US8933195B2, “Histone deacetylase inhibitors and synthetic method thereof and use thereof in manufacture of medicaments” (Nanjing Yoko Biomedical R & D Ltd., priority 2011, dated 2015).

Columns and labels:
[1] = molecular target: HDAC1 (Homo sapiens, UniProt Q13547); test: Measurement of biochemical activities of HDAC (fluorescently-labeled acetylated lysine substrate); conditions: read-out: IC50 HDAC1
Method: (§1) 1. Measurement principles: the measurement of biochemical activities of compounds is determined according to the degree of the compounds inhibiting the deacylation of HDAC enzyme. After the fluorescently-labeled substrate containing acetylated lysine side chain reacts with the HDAC enzyme, the fluorogenic substrate is deacetylated. After the deacetylated fluorescently-labeled substrate is cracked by the enzyme, a fluorescent substance is released. The fluorescent substance generates emitting light of 460 nm under the excitation of light of 360 nm.
(§2) 2. Detailed steps: the substrate of HDAC is diluted to […] (the reaction concentration is […]) with a reaction buffer. HDAC enzyme is diluted to a proper concentration. The compounds to be detected in different concentrations are added. The mixture reacts for 30 min at 37. Then the developer with the same volume and twice concentration of the substrate is added into the mixture. The mixture is incubated for 15 min at room temperature. Finally, the reading is measured with a micro plate scanner. The excitation light is 360 nm, the emitting light is 460 nm, and the data is processed with Prime 4 software.

[2] = molecular target: T1, HDAC7 (Homo sapiens, UniProt Q8WUI4); test: as above
T1 sequence (Q8WUI4 1-952): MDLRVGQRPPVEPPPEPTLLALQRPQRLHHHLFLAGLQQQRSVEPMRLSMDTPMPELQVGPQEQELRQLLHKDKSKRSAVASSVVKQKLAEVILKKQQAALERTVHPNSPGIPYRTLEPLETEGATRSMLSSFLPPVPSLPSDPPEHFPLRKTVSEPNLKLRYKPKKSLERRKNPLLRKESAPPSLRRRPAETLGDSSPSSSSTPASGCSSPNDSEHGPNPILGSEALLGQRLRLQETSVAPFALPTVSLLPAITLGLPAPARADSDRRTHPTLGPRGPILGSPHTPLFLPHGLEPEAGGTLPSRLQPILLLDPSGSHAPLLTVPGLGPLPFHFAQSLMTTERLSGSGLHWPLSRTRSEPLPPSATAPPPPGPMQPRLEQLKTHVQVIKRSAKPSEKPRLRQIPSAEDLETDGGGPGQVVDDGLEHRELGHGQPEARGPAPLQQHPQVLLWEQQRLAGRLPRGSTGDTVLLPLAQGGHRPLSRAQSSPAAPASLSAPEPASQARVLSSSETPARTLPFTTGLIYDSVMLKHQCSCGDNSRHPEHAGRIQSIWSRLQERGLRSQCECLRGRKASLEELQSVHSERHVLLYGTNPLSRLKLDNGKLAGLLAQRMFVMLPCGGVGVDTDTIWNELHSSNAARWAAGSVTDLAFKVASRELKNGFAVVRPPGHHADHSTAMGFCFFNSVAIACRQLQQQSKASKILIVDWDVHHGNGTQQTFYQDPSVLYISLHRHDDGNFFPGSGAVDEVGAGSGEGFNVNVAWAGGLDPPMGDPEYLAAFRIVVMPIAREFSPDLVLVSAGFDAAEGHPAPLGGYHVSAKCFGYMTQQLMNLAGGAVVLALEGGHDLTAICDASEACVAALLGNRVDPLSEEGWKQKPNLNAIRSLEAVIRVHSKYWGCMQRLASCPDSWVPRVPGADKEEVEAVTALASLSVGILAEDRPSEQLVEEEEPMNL
Method: as §1, §2

[3] = system: A549 (human lung cancer cells); test: MTT cancer cell growth inhibition; format: cell-based; conditions: 72 h
Text: (§3) 1. Experimental principles: the inhibition of cancer cell growth with compounds is detected by an MTT method. The principle of the MTT method is as follows: yellow thiazolyl blue may penetrate through cell membranes and enter into cells, succinate dehydrogenase in living cell mitochondria may reduce exogenous MTT into water-insoluble ianthinus acicular Formazan crystals which deposit in the cells, the crystals can be dissolved with dimethyl sulfoxide (DMSO), the optical density of the crystals is detected with an enzyme-linked immunometric meter at the wavelength of 490 nm/570 nm, and the number of cells can be indirectly reflected.
(§4) 2. Experimental materials: the used cancer cell lines are Hela (human cervical cancer cells), MCF-7 (human breast cancer cells), BGC-823 (human gastric cancer cells), A549 (human lung cancer cells), HT1080 (human fibrosarcoma cells), A431 (human epidermal squamous cell carcinoma cells), HUVEC (human umbilical vein endothelial cells), DU145 (human prostate cancer cells), K562 (human leukemia cells), U937 (human leukemia cells), Pac-1 (human pancreatic cancer cells), and MOLT-4 (human acute lymphoblastic leukemia cells), which are cultured with a DMEM+10% FBS culture medium or a 1640+10% FBS culture medium, respectively.
(§5) Experimental groups: 190 μl cell suspension+10 μl pharmaceuticals in different concentrations (the final concentration is 10^−5-10^−10M)
(§6) Negative control group: 190 μl cell suspension+10 μl 2% DMSO (the final concentration of DMSO is 0.1%)
(§7) a) Cells are inoculated on a 96-pore plate, with 1500 cells and 190 μl for each hole, and cultured overnight in a 5% CO2 incubator at 37.
(§8) b) 10 μl of different pharmaceuticals is added into each hole the next day, with the final concentration of the pharmaceuticals of 10^−5-10^−10M and three parallel holes, and incubated for 72 h in a 5% CO2 incubator at 37.
(§9) c) 20 μl of 5 mg/mL MTT is added into each hole, and incubated for 4 h in a 5% CO2 incubator at 37.
(§10) d) Supernatant is removed. 100 μl of DMSO is added into each hole and vibrated.
(§11) e) The reading is 570 nm. The cell survival rate is calculated.

[4] = system: BGC-823 (human gastric cancer cells); test: MTT cancer cell growth inhibition; format: cell-based; conditions: 72 h, read-out: GI50 BGC823
Text: as §3, §4, §5, §6, §7, §8, §9, §10, §11

[5] = system: DU145 (human prostate cancer cells); test: MTT cancer cell growth inhibition; format: cell-based; conditions: DU-145, 72 h
Text: as §3, §4, §5, §6, §7, §8, §9, §10, §11

[6] = system: HT1080 (human fibrosarcoma cells); test: MTT cancer cell growth inhibition; format: cell-based; conditions: HT-1080, 72 h
Text: as §3, §4, §5, §6, §7, §8, §9, §10, §11

[7] = system: Hela (human cervical cancer cells); test: MTT cancer cell growth inhibition; format: cell-based; conditions: 72 h
Text: as §3, §4, §5, §6, §7, §8, §9, §10, §11

[8] = system: MCF-7 (human breast cancer cells); test: MTT cancer cell growth inhibition; format: cell-based; conditions: MCF7, 72 h
Text: as §3, §4, §5, §6, §7, §8, §9, §10, §11

[9] = system: MOLT-4 (human acute lymphoblastic leukemia cells); test: MTT cancer cell growth inhibition; format: cell-based; conditions: 72 h
Text: as §3, §4, §5, §6, §7, §8, §9, §10, §11

[10] = system: PANC-1; test: MTT cancer cell growth inhibition; format: cell-based; conditions: Homo sapiens, 72 h
Text: as §3, §4, §5, §6, §7, §8, §9, §10, §11

[11] = system: U937 (human leukemia cells); test: MTT cancer cell growth inhibition; format: cell-based; conditions: U-937, 72 h
Text: as §3, §4, §5, §6, §7, §8, §9, §10, §11

[12] = system: Incap; test: MTT cancer cell growth inhibition; format: cell-based; conditions: 72 h

Chain of HDAC1 (Q13547 whole entry, species assumed): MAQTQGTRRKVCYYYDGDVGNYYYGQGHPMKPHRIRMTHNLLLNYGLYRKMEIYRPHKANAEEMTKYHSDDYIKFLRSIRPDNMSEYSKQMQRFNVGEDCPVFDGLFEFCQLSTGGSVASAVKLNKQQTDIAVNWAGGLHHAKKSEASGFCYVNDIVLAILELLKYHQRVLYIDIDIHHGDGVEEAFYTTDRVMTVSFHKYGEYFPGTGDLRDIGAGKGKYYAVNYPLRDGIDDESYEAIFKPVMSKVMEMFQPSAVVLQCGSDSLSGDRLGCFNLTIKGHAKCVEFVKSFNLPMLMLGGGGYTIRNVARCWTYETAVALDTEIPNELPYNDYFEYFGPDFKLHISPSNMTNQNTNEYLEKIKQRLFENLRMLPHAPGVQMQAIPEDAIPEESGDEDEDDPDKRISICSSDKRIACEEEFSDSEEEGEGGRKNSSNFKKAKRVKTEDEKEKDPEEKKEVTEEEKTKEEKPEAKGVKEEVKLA

SMILES	IC50 [1] [µM]	IC50 HDAC7 [2]	GI50 [3] [nM]	GI50 [4] [nM]	GI50 [5] [nM]	GI50 [6] [nM]	GI50 [7] [nM]	GI50 [8] [nM]	GI50 [9] [nM]	GI50 [10] [nM]	GI50 [11] [nM]	GI50 [12] [nM]
C/C=C1\NC(=O)c2csc(n2)[C@H](Cc2ccc(O)cc2)NC(=O)C[C@@H](/C=C/CCSC(=O)CCCCCCC)OC(=O)[C@H](C(C)C)NC1=O [Compound 4-4]	< 10	no activity	10	1020	2100	650	1000	6	50	3010	10200	4260
C/C=C1\NC(=O)c2ccnc(c2)CNC(=O)C[C@@H](/C=C/CCSC(=O)CCCCCCC)OC(=O)[C@H](C(C)C)NC1=O [Compound 2-7]	< 10	no activity	90	100	6	80	100	90	2100	800	9	650
C/C=C1\NC(=O)c2csc(n2)CNC(=O)C[C@@H](/C=C/CCSC(=O)CCN)OC(=O)[C@H](C(C)C)NC1=O [Compound 6-6]	< 1	no activity	1	65	300	4160	860	952	56400	1650	1290	650
C/C=C1\NC(=O)c2csc(n2)CNC(=O)C[C@@H](/C=C/CCSC(=O)CCCCCCC)OC(=O)[C@H](CSCC)NC1=O [Compound 1-12]	< 0.1	no activity	1200	60	100	1000	900	800	100	6000	100	300
C/C=C1\NC(=O)c2csc(n2)CNC(=O)C[C@@H](/C=C/CCSC(=O)CCCCCCC)OC(=O)[C@H](Cc2cccc3ccccc23)NC1=O [Compound 1-9]	< 10	no activity	30	50	3	40	50	50	10	600	5	30
C/C=C1\NC(=O)C2N=C(CNC(=O)C[C@@H](/C=C/CCSC(=O)CCCCCCC)OC(=O)[C@H](C(C)C)NC1=O)S[C@@H]2C (stereo partly drawn) [Compound 2-3]	< 10	no activity	2600	1560	560	40500	26500	21400	23100	2650	1230	500
C=C1NC(=O)c2csc(n2)CNC(=O)C[C@@H](/C=C/CCSC(=O)CCCCCCC)OC(=O)[C@H](C(C)C)NC1=O [Compound 3-1]	< 10	no activity	350	1200	2030	1060	10	2100	150	10600	21500	5400
CCCCCCCC(=O)SCC/C=C/[C@@H]1CC(=O)NCc2nc(cs2)C(=O)N[C@H](CC)C(=O)N[C@@H](C(C)C)C(=O)O1 [Compound 3-2]	< 10	no activity	360	1020	1060	1350	600	100	1060	1230	5260	1420

Next, values leading:

IC50 [1] [µM]	IC50 HDAC7 [2]	GI50 [3] [nM]	GI50 [4] [nM]	GI50 [5] [nM]	GI50 [6] [nM]	GI50 [7] [nM]	GI50 [8] [nM]	GI50 [9] [nM]	GI50 [10] [nM]	GI50 [11] [nM]	GI50 [12] [nM]	SMILES
< 10	no activity	21300	2100	650	19600	3050	3650	10	650	340	73500	C/C=C1\NC(=O)c2csc(n2)CNC(=O)C[C@@H](/C=C/CCSC(=O)CCCCCCC)OC(=O)[C@H](C)N(C)C1=O [Compound 5-1]
< 10	no activity	4600	2550	420	1330	500	690	2650	1250	6350	630	C/C=C1\NC(=O)c2csc(n2)CNC(=O)C[C@@H](/C=C/CCSC(=O)Cc2ccccc2)OC(=O)[C@H](C(C)C)NC1=O [Compound 6-4]
< 10	no activity	41000	5000	13600	25000	45000	56600	3640	890	10100	12000	C/C=C1\NC(=O)c2csc(n2)CNC(=O)C[C@@H](/C=C/CCSC(=O)CCCCCCCCCCCC)OC(=O)[C@H](C(C)C)NC1=O [Compound 6-3]
< 10	no activity	15600	4600	1600	41000	73500	59600	400	680	2650	900	C/C=C1\NC(=O)c2csc(n2)CNC(=O)C[C@@H](/C=C/CCSC(C)=O)OC(=O)[C@H](C(C)C)NC1=O [Compound 6-2]
